Results from US20070117770A1, “Human ribosomal DNA (rDNA) and ribosomal RNA (rRNA) nucleic acids and uses thereof” (Cylene Pharmaceuticals, Inc., priority 2005, published 2007).

Experiments:
Assay in all cases: Protein kinase inhibition assay
Format in all cases: biochemical
Yes(h) = Yes(h) (Homo sapiens, UniProt P07947); settings: read-out: percent residual activity of Yes(h)
Experimental: (§1) Certain compounds were tested for activity in protein kinase inhibition assays. All substrates were dissolved and diluted to working stocks in de-ionized water, apart from histone H1 (10× working stock in 20 mM MOPS pH 7.0), PDKtide (10× working stock in 50 mM Tris pH 7.0) ATF2 (which is typically stored at a 20× working stock in 50 mM Tris pH 7.5, 150 mM NaCl, 0.1 mM EGTA, 0.03% Brij-35, 50% glycerol, 1 mM benzamidine, 0.2 mM PMSF and 0.1% R-mercaptoethanol), KKLNRTLSFAEPG (SEQ ID NO:203) and RRRLSFAEPG (SEQ ID NO:204) (50 mM HEPES pH 7.4) and GGEEEEYFELVKKKK (SEQ ID NO:205) (20 mM MOPS pH 7.0). All kinases were pre-diluted to a 10× working concentration prior to addition into the assay. The composition of the dilution buffer for each kinase is detailed below.
(§2) In a final reaction volume of 25 μl, Yes (h) (5-10 mU) is incubated with 8 mM MOPS pH 7.0, 0.2 mM EDTA, 0.1 mg/ml poly(Glu, Tyr) 4:1, 10 mM MgAcetate and [gamma-33P-ATP] (specific activity approx. 500 cpm/pmol, concentration as required). The reaction is initiated by the addition of the MgATP mix. After incubation for 40 minutes at room temperature, the reaction is stopped by the addition of 5 μl of a 3% phosphoric acid solution. 10 μl of the reaction is then spotted onto a Filtermat A and washed three times for 5 minutes in 75 mM phosphoric acid and once in methanol prior to drying and scintillation counting.

MINK(h) = MINK(h) (Homo sapiens, UniProt Q8N4C8); settings: read-out: percent residual activity of MINK(h)
Experimental: as §1
as §2, with “MINK” for “Yes”, “0.33” for “0.1”, “myelin basic protein,” for “poly(Glu, Tyr) 4:1,”, “P30 filtermat” for “Filtermat A”

ALK(h) = ALK(h) (Homo sapiens, UniProt Q9UM73); settings: read-out: percent residual activity of ALK(h)
Experimental: as §1
as §2, with “ALK” for “Yes”, “250 μM KKKSPGEYVNIEFG (SEQ ID NO:207),” for “0.1 mg/ml poly(Glu, Tyr) 4:1,”, “[y -33P-ATP]” for “[gamma-33P-ATP]”, “P30 filtermat” for “Filtermat A”

IKKβ(h) = IKKβ(h) (Homo sapiens, UniProt O14920); settings: read-out: percent residual activity of IKKβ(h)
Experimental: as §1
as §2, with “IKKβ” for “Yes”, “100 μM peptide,” for “0.1 mg/ml poly(Glu, Tyr) 4:1,”, “P30 filtermat” for “Filtermat A”

MAPK1(h) = MAPK1(h) (Homo sapiens, UniProt P27361); settings: read-out: percent residual activity of MAPK1(h)
Experimental: as §1
as §2, with “MAPK1” for “Yes”, “25” for “8”, “Tris” for “MOPS”, “7.5, 0.02” for “7.0, 0.2”, “EGTA, 250 μM peptide,” for “EDTA, 0.1 mg/ml poly(Glu, Tyr) 4:1,”, “P30 filtermat” for “Filtermat A”

SAPK3(h) = SAPK3(h) (Homo sapiens, UniProt P53778); settings: read-out: percent residual activity of SAPK3(h)
Experimental: as §1
In a final reaction volume of 25 μl, SAPK3 (h) (5-10 mU) is incubated with 25 mM Tris pH 7.5, 0.02 mM EGTA, 0.33 mg/ml myelin basic protein, 10 mM MgAcetate and [gamma-33P-ATP] (specific activity approx. 500 cpm/pmol, concentration as required). The reaction is initiated by the addition of the MgATP mix. After incubation for 40 minutes at room temperature, the reaction is stopped by the addition of 5 μl of a 3% phosphoric acid solution. 10 μl of the reaction is then spotted onto a P30 filtermat and washed three times for 5 minutes in 75 mM phosphoric acid and once in methanol prior to drying and scintillation counting.

Rsk1(r) = Rsk1(r) (Rattus norvegicus, UniProt Q63531); settings: read-out: percent residual activity of Rsk1(r)
Experimental: as §1
as §2, with “Rsk1 (r)” for “Yes (h)”, “30 μM KKKNRTLSVA (SEQ ID NO:212),” for “0.1 mg/ml poly(Glu, Tyr) 4:1,”, “P30 filtermat” for “Filtermat A”

Sequence of MAPK1(h) (P27361 whole entry): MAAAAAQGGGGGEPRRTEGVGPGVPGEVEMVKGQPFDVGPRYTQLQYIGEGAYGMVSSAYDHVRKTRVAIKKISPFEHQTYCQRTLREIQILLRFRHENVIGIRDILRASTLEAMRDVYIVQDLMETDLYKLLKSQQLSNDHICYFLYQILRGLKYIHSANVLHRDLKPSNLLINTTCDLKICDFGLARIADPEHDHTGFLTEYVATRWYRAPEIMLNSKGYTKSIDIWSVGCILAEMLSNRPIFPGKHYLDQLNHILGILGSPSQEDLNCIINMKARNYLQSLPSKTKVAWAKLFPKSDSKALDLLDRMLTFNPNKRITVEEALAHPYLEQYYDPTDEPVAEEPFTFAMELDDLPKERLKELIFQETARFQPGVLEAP
Sequence of MINK(h) (Q8N4C8 whole entry): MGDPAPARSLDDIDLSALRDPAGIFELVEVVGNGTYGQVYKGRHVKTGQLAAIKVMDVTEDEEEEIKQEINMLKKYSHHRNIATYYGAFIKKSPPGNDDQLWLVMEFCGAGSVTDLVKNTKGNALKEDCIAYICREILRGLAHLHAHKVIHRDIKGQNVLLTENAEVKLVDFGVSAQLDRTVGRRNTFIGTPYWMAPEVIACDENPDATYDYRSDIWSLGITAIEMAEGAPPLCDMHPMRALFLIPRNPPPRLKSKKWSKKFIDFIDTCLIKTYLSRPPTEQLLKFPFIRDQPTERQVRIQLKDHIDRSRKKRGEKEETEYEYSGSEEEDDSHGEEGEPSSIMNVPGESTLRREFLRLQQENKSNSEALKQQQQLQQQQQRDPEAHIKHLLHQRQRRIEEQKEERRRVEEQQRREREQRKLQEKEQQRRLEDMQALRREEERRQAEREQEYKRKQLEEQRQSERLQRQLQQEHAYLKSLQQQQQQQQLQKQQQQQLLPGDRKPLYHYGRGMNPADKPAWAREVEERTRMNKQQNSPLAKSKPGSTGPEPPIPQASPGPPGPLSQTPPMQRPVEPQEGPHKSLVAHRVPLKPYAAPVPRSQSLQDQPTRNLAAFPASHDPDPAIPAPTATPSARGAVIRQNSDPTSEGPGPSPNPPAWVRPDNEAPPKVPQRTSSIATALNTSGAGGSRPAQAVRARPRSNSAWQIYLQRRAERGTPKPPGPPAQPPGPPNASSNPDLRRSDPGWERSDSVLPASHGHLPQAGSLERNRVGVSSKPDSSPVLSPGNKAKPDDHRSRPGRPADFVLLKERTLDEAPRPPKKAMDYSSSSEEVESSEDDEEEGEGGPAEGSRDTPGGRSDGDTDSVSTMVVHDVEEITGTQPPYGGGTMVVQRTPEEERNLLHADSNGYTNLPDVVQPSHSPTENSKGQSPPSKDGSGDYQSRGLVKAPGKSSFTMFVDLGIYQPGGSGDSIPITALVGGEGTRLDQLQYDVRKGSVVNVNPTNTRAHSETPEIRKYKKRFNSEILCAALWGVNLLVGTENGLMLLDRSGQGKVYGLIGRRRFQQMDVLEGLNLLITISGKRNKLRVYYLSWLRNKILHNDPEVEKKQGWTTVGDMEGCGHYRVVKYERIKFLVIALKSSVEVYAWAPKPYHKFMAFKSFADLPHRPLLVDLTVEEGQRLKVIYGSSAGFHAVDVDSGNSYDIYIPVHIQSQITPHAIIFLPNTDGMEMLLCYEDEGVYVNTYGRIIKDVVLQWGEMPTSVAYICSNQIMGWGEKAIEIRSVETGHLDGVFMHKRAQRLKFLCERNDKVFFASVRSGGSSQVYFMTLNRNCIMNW
Sequence of Yes(h) (P07947 whole entry): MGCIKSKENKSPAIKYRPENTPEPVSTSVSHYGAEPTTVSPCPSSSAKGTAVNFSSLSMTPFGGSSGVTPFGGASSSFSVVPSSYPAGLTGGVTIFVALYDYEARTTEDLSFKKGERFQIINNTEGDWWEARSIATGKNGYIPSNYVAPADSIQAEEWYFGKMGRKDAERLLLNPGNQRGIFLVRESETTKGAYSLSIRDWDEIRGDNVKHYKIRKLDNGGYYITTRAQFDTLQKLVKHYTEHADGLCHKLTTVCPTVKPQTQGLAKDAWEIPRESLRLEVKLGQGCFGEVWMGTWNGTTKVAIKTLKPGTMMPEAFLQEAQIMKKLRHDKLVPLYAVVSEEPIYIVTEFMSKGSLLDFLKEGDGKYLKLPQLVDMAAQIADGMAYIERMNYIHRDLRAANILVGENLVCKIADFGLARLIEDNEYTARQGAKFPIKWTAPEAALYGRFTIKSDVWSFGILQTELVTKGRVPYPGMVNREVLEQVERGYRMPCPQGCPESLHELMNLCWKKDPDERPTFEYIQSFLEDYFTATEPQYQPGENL
Sequence of IKKβ(h) (O14920 whole entry): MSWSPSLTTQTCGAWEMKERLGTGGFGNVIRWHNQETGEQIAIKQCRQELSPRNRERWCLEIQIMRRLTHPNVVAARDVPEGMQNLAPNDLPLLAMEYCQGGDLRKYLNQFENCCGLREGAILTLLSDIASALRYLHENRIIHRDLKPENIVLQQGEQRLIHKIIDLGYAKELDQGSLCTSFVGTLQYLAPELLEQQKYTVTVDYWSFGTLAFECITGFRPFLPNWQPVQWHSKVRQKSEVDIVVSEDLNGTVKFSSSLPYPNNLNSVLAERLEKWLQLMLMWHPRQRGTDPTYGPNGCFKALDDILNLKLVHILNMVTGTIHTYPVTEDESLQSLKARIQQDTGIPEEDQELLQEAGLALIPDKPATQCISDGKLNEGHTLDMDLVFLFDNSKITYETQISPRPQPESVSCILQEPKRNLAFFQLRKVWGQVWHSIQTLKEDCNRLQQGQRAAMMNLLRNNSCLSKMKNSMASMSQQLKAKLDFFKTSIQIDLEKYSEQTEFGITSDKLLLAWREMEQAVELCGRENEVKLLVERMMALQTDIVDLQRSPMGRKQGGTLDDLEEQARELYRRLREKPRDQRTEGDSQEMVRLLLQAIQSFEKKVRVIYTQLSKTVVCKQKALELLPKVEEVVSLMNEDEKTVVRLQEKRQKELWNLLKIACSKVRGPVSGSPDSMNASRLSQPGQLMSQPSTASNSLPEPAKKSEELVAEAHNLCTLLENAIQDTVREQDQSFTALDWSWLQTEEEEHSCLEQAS
Sequence of Rsk1(r) (Q63531 whole entry): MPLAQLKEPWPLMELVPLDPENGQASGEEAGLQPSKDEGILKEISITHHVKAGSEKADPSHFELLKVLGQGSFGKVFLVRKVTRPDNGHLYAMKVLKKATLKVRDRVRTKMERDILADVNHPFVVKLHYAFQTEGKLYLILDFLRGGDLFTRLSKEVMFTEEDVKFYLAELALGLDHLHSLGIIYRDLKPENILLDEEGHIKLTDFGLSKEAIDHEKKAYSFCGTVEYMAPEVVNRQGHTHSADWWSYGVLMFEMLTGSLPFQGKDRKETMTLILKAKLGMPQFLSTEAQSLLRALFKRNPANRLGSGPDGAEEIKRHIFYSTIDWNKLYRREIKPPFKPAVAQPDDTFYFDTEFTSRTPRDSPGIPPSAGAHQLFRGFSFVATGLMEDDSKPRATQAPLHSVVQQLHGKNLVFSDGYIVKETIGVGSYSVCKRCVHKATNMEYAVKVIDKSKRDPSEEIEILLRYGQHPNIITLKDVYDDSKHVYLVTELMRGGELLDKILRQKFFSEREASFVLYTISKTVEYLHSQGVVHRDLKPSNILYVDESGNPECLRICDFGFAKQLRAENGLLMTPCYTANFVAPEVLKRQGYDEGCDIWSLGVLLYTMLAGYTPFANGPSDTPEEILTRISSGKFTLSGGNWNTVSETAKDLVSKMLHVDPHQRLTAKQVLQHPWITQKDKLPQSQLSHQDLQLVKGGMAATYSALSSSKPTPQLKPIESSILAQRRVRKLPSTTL
Sequence of SAPK3(h) (P53778 whole entry): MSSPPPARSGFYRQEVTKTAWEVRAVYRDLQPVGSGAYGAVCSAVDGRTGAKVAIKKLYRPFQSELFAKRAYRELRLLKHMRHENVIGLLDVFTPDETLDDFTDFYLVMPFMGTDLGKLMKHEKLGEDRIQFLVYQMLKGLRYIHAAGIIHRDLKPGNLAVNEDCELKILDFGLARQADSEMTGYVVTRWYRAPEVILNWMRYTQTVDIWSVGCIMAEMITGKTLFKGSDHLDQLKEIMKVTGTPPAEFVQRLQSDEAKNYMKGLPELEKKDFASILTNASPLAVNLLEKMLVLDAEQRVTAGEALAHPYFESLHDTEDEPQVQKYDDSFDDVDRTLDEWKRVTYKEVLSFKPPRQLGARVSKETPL

Structure (SMILES)	remaining activity at 2.5 µM (Yes(h))	remaining activity at 2.5 µM (MINK(h))	remaining activity at 2.5 µM (ALK(h))	remaining activity at 2.5 µM (IKKβ(h))	remaining activity at 2.5 µM (MAPK1(h))	remaining activity at 2.5 µM (SAPK3(h))	remaining activity at 2.5 µM (Rsk1(r))
CN1CCCC1CCNC(=O)c1cn2c3c(c(N4CCC(c5cnccn5)C4)c(F)cc3c1=O)Oc1cc3ccccc3cc1-2 (centres unmarked) [Compound A-1]	81%	72%	69%	56%	92%	85%	85%
CC(=O)N1CCN(c2ccc3c(=O)c(C(=O)NCCN4CCCC4)c4n(C)c5ccccc5n4c3n2)CC1 [Compound B-1]	96%	97%	97%	105%	94%	111%	110%
